Measured values reported in PubChem BioAssay AID248 (DTP/NCI, 2004).
“And” between values parts separate entries of the source, which are not always exact repeats. Equal values may be shown once. Inconclusive results and toxic doses are left out. Cut-off read from the data, not from the text of the source: active = T/C of 150% or more; inactive = T/C below 125%.

Test system: L1210 leukemia ip in BDF1 mice, survival T/C
Assay: NCI In Vivo Anticancer Drug Screen. Data for tumor model L1210 Leukemia (intraperitoneal) in B6D2F1 (BDF1) mice
Conditions: endpoint: mean survival time, higher = longer survival
Procedure, shortened: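 Tumor cells were implanted, animals were treated, and survival was followed. The result divides the treated measurement by the vehicle-control measurement.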

[1] = dose: 100.0 mg/kg/injection, schedule: Q01DX001 (ip), vehicle: other
[2] = dose: 100.0 mg/kg/injection, schedule: Q04DX003 (ip), vehicle: Klucel (hydroxypropylcellulose) (HPC)
[3] = dose: 200.0 mg/kg/injection, schedule: Q01DX001 (ip), vehicle: other
[4] = dose: 200.0 mg/kg/injection, schedule: Q04DX003 (ip), vehicle: Klucel (hydroxypropylcellulose) (HPC)
[5] = dose: 400.0 mg/kg/injection, schedule: Q01DX001 (ip), vehicle: other
[6] = dose: 400.0 mg/kg/injection, schedule: Q04DX003 (ip), vehicle: Klucel (hydroxypropylcellulose) (HPC)
[7] = dose: 100.0 mg/kg/injection, schedule: Q04DX002 (ip), vehicle: saline
[8] = dose: 200.0 mg/kg/injection, schedule: Q04DX002 (ip), vehicle: saline
[9] = dose: 100.0 mg/kg/injection, schedule: Q01DX009 (ip), vehicle: Klucel (hydroxypropylcellulose) (HPC)
[10] = dose: 200.0 mg/kg/injection, schedule: Q01DX009 (ip), vehicle: Klucel (hydroxypropylcellulose) (HPC)
[11] = dose: 400.0 mg/kg/injection, schedule: Q01DX009 (ip), vehicle: Klucel (hydroxypropylcellulose) (HPC)
[12] = dose: 100.0 mg/kg/injection, schedule: Q01DX001 (ip), vehicle: saline
[13] = dose: 100.0 mg/kg/injection, schedule: Q01DX009 (ip), vehicle: saline
[14] = dose: 200.0 mg/kg/injection, schedule: Q01DX001 (ip), vehicle: saline
[15] = dose: 200.0 mg/kg/injection, schedule: Q01DX009 (ip), vehicle: saline
[16] = dose: 50.0 mg/kg/injection, schedule: Q01DX009 (ip), vehicle: Klucel (hydroxypropylcellulose) (HPC)
[17] = dose: 100.0 mg/kg/injection, schedule: Q04DX002 (ip), vehicle: Klucel (hydroxypropylcellulose) (HPC)
[18] = dose: 100.0 mg/kg/injection, schedule: Q01DX009 (ip), vehicle: saline with Tween-80
[19] = dose: 200.0 mg/kg/injection, schedule: Q01DX009 (ip), vehicle: saline with Tween-80
[20] = dose: 400.0 mg/kg/injection, schedule: Q01DX009 (ip), vehicle: saline with Tween-80

Measured: T/C

Cc1ccc(NCC(O)CN2CCN(CC(O)CNc3ccc(C)cc3)CC2)cc1 (configuration not stated)
inactive: [1] 106 % of control | [2] 88 % of control | [3] 95 % of control | [4] 94 % of control | [5] 95 % of control | [6] 91 % of control

O=C(O)c1c(-c2ccccc2)oc(-c2ccccc2)c1C(=O)O
inactive: [7] 105 % of control | [8] 94 % of control

CCNCC(=O)Nc1ccccc1C(=O)OCC
inactive: dose: 222.0 mg/kg/injection, schedule: Q01DX Z (ip), vehicle: saline 113 % of control | dose: 333.0 mg/kg/injection, schedule: Q01DX Z (ip), vehicle: saline 102 % of control

CN(C)c1ccc(C=O)c(Oc2ccccc2)c1
inactive: [9] 96 % of control | [2] 97 % of control | [10] 110 % of control | [4] 97 % of control | [11] 106 % of control | [6] 94 % of control

COc1cc(C=Nc2ccc(-c3nc(C)sc3C)cc2)ccc1N(CCOS(C)(=O)=O)CCOS(C)(=O)=O
inactive: dose: 50.0 mg/kg/injection, schedule: Q01DX009 (ip), vehicle: saline 111 % of control | [12] 110 % of control | [13] 121 % of control | [14] 105 % of control | [15] 116 % of control

COc1cccc2c(=O)c(C(=O)O)c[nH]c12
inactive: [16] 101 % of control | dose: 50.0 mg/kg/injection, schedule: Q04DX003 (ip), vehicle: Klucel (hydroxypropylcellulose) (HPC) 94 % of control | [9] 106 % of control | [7] 96 % of control | [2] 91 % of control | [10] 107 % of control | [8] 96 % of control | [4] 94 % of control | dose: 400.0 mg/kg/injection, schedule: Q04DX002 (ip), vehicle: saline 100 % of control

C[n+]1c(O)c(C(=O)CCl)n2ccccc21
inactive: [13] 94 % of control | [15] 91 % of control | dose: 400.0 mg/kg/injection, schedule: Q01DX009 (ip), vehicle: saline 92 % of control

N/C(N=P(c1ccccc1)(c1ccccc1)c1ccccc1)=N\S(=O)(=O)c1ccc([N+](=O)[O-])cc1
inactive: dose: 25.0 mg/kg/injection, schedule: Q04DX002 (ip), vehicle: Klucel (hydroxypropylcellulose) (HPC) 104 % of control | dose: 50.0 mg/kg/injection, schedule: Q04DX002 (ip), vehicle: Klucel (hydroxypropylcellulose) (HPC) 111 % of control | [17] 96 % of control

C=CCSc1ccc(Cl)cc1
inactive: [12] 105 % of control | [14] 103 % of control

N#CC(C(N)=O)C1CC(=O)Oc2ccccc21 (configuration not stated)
inactive: [16] 100 % of control | [9] 105 % of control | [10] 100 % of control

CC(C)(Cl)CCC1=C(Cl)C(=O)c2ccccc2C1=O
inactive: dose: 5.0 mg/kg/injection, schedule: Q01DX001 (ip), vehicle: water 98 % of control | dose: 10.0 mg/kg/injection, schedule: Q01DX001 (ip), vehicle: water 98 % of control

O=[N+]([O-])c1c(Cl)cccc1-c1c[nH]cc1Cl
inactive: [1] 92 % of control | [3] 90 % of control | [5] 97 % of control

O=C1c2ccccc2C(=O)c2c(O)c3c(c(O)c21)CC=CC3
inactive: dose: 0.25 mg/kg/injection, schedule: Q04DX003 (ip), vehicle: saline with Tween-80 94 % of control | dose: 0.5 mg/kg/injection, schedule: Q04DX003 (ip), vehicle: saline with Tween-80 104 % of control | dose: 1.0 mg/kg/injection, schedule: Q04DX003 (ip), vehicle: saline with Tween-80 100 % of control | dose: 2.0 mg/kg/injection, schedule: Q04DX003 (ip), vehicle: saline with Tween-80 104 % of control | dose: 4.0 mg/kg/injection, schedule: Q04DX003 (ip), vehicle: saline with Tween-80 102 % of control | dose: 6.0 mg/kg/injection, schedule: Q04DX003 (ip), vehicle: saline with Tween-80 102 % of control | dose: 8.0 mg/kg/injection, schedule: Q04DX003 (ip), vehicle: saline with Tween-80 93 % of control | dose: 12.0 mg/kg/injection, schedule: Q04DX003 (ip), vehicle: saline with Tween-80 103 % of control | dose: 16.0 mg/kg/injection, schedule: Q04DX003 (ip), vehicle: saline with Tween-80 93 % of control | dose: 24.0 mg/kg/injection, schedule: Q04DX003 (ip), vehicle: saline with Tween-80 102 % of control | dose: 32.0 mg/kg/injection, schedule: Q04DX003 (ip), vehicle: saline with Tween-80 100 % of control | dose: 48.0 mg/kg/injection, schedule: Q04DX003 (ip), vehicle: saline with Tween-80 103 % of control | dose: 64.0 mg/kg/injection, schedule: Q04DX003 (ip), vehicle: saline with Tween-80 96 % of control | dose: 128.0 mg/kg/injection, schedule: Q04DX003 (ip), vehicle: saline with Tween-80 105 % of control

CCOC(=O)c1ccc[n+]([O-])c1
inactive: dose: 100.0 mg/kg/injection, schedule: Q04DX003 (ip), vehicle: saline 94 % of control | dose: 200.0 mg/kg/injection, schedule: Q04DX003 (ip), vehicle: saline 95 % of control | dose: 400.0 mg/kg/injection, schedule: Q04DX003 (ip), vehicle: saline 94 % of control

C[N+](C)(CCCCOCCCC[N+](C)(C)Cc1ccc([N+](=O)[O-])cc1)Cc1ccc([N+](=O)[O-])cc1
inactive: dose: 1.5 mg/kg/injection, schedule: Q04DX003 (ip), vehicle: saline with Tween-80 98 % of control | dose: 3.0 mg/kg/injection, schedule: Q04DX003 (ip), vehicle: saline with Tween-80 104 % of control

O=C(O)c1cc(=O)c(O)c2c(O)c(O)c(O)cc2c1
inactive: [12] 103 % of control | [14] 91 % of control

O=C(Cl)c1ccccc1/C=C/c1ccccc1
inactive: [18] 89 % of control | [19] 89 % of control | [20] 93 % of control

Cc1cc(C)c(S(=O)(=O)ON=C2c3ccccc3-c3ccccc32)c(C)c1
inactive: [9] 107 % of control | [2] 105 % of control | [10] 104 % of control | [4] 110 % of control | [11] 101 % of control | [6] 97 % of control

CCCCCP(=O)(CCCCC)CCCCC
inactive: dose: 25.0 mg/kg/injection, schedule: Q04DX002 (ip), vehicle: saline with Tween-80 100 % of control | dose: 50.0 mg/kg/injection, schedule: Q04DX002 (ip), vehicle: saline with Tween-80 94 % of control | dose: 100.0 mg/kg/injection, schedule: Q04DX002 (ip), vehicle: saline with Tween-80 98 % of control and 106 % of control

O=C(Nc1cc2c(cc1Br)OCO2)C(Cl)Cl
inactive: [18] 95 % of control | [19] 120 % of control | [20] 92 % of control

CCCCCCCC/C=C\CCCCCCCCOC(=O)Cc1ccc(N(CCCl)CCCl)cc1
inactive: dose: 100.0 mg/kg/injection, schedule: Q01DX005 (ip), vehicle: Klucel (hydroxypropylcellulose) (HPC) 119 % of control | [17] 121 % of control | dose: 200.0 mg/kg/injection, schedule: Q01DX005 (ip), vehicle: Klucel (hydroxypropylcellulose) (HPC) 115 % of control | dose: 200.0 mg/kg/injection, schedule: Q04DX002 (ip), vehicle: Klucel (hydroxypropylcellulose) (HPC) 117 % of control | dose: 400.0 mg/kg/injection, schedule: Q04DX002 (ip), vehicle: Klucel (hydroxypropylcellulose) (HPC) 121 % of control
